According to patent US20110306922A1, “LIGHT-EMITTING DEVICES FOR PHOTOTHERAPY” (priority 2010, published 2011):

Tests used:
[1] = test system: CHO-K1 (Chinese Hamster Ovarian Cancer, ATCC, CRL-2243) cell line; assay: cells; settings: Cricetulus griseus, CHO-K1, light or radiation study, read-out: cells destroyed (cell viability, light dosimetry)
[2] = test system: CHO-K1 (Chinese Hamster Ovarian Cancer, ATCC, CRL-2243) cell line
[3] = test system: presumed ocular histoplasmosis; set-up: species or system person; settings: in vivo, iv
pathological myopia = assay: Intravenous verteporphin plus red OLED illumination of the retina, pathological myopia; format: in vivo, person; settings: about 6 mg/m^2 i.v.; about 20 mW/cm^2 for about 42 minutes, about 50 J/cm2
Experimental: (§1) Verteporphin is intravenously injected, over a period of about 10 minute at a rate of about 3 mL/min, to a person suffering from pathological myopia. The verteporphin (7.5 mL of 2 mg/mL reconstituted solution, available as Visudyne® from Novartis) is diluted with 5% dextrose to a volume of 30 mL using a sufficient quantity of the reconstituted verteporphin so that the total dose injected is about 6 mg/m^2 of body surface.
After treatment, the patient's vision is anticipated to be stabilized. The treatment is repeated as needed.

[4] = test system: age-related macular degeneration; assay: Intravenous verteporphin plus red OLED illumination of the retina, age-related macular degeneration; format: in vivo, person; settings: about 6 mg/m^2 i.v.; about 20 mW/cm^2 for about 42 minutes, about 50 J/cm
Experimental: as §1, with “minutes” for “minute”, “age-related macular degeneration.” for “pathological myopia.”
The treatment is repeated as needed.

SMILES	cytotoxicity at 1000 µM [1] [%]	generation of PpIX (fluorescence emission at 635 nm) ([2]; ALA 0.5 mM, 1 mM, 2 mM, incubated about 16 hrs at 37° C.)	optical microscope images of the cells: healthy leafy type cells transform to droplet type ([2]; after 25 J/cm^2 red light (630 nm) irradiation from OLED)	patient's vision [3]	patient's vision (pathological myopia)	patient's vision [4]
NCC(=O)CCC(=O)O [ALA, 5-aminolevulinic acid]	~90	confirmed	significant cell death			
C=Cc1c(C)c2cc3nc(cc4[nH]c(cc5nc(cc1[nH]2)C(C)=C5CCC(=O)O)c(CCC(=O)OC)c4C)[C@@]1(C)C3=CC=C(C(=O)OC)[C@H]1C(=O)OC [Verteporphin]				stabilized	stabilized	stabilized
